Assay: xn = mol fraction of the nth substance listed
Conditions: 100 kPa

Question: Which viscosity (293.15 K, x2 = 0.0475) does the source give for CCCC[n+]1ccc(C)cc1.O=S(=O)([N-]S(=O)(=O)C(F)(F)F)C(F)(F)F + CCOS(=O)(=O)[O-].CC[n+]1ccn(C)c1 here?
Answer: 78.7 mPa·s

Question: And the viscosity (293.15 K, x2 = 0.226)?
Answer: 100.8 mPa·s

Question: And the viscosity (293.15 K, x2 = 0.4479)?
Answer: 132.9 mPa·s

Question: And the viscosity (293.15 K, x2 = 0.6663)?
Answer: 150.8 mPa·s

Question: And the viscosity (293.15 K, x2 = 0.7776)?
Answer: 149.6 mPa·s

Question: What about the viscosity (293.15 K, x2 = 0.886) of the same molecule?
Answer: 141.6 mPa·s

Question: What about the viscosity (293.15 K, x2 = 0.9487) of the same molecule?
Answer: 133.5 mPa·s

Question: What about the viscosity (303.15 K, x2 = 0.0475) of the same molecule?
Answer: 49.3 mPa·s

Question: And the viscosity (303.15 K, x2 = 0.1177)?
Answer: 54 mPa·s

Question: What about the viscosity (303.15 K, x2 = 0.226) of the same molecule?
Answer: 62.2 mPa·s

Question: What about the viscosity (303.15 K, x2 = 0.3341) of the same molecule?
Answer: 70.8 mPa·s

Question: What about the viscosity (303.15 K, x2 = 0.4479) of the same molecule?
Answer: 79.8 mPa·s

Question: And the viscosity (303.15 K, x2 = 0.6663)?
Answer: 90.1 mPa·s

Question: And the viscosity (303.15 K, x2 = 0.886)?
Answer: 85.5 mPa·s

Question: What about the viscosity (303.15 K, x2 = 0.9487) of the same molecule?
Answer: 81.1 mPa·s

Question: What about the viscosity (313.15 K, x2 = 0.0475) of the same molecule?
Answer: 33 mPa·s

Question: And the viscosity (313.15 K, x2 = 0.1177)?
Answer: 36 mPa·s

Question: What about the viscosity (313.15 K, x2 = 0.226) of the same molecule?
Answer: 41.1 mPa·s

Question: What about the viscosity (313.15 K, x2 = 0.4479) of the same molecule?
Answer: 51.7 mPa·s

Question: What about the viscosity (313.15 K, x2 = 0.558) of the same molecule?
Answer: 55.9 mPa·s

Question: What about the viscosity (313.15 K, x2 = 0.7776) of the same molecule?
Answer: 57.9 mPa·s

Question: What about the viscosity (313.15 K, x2 = 0.886) of the same molecule?
Answer: 55.7 mPa·s

Question: What about the viscosity (323.15 K, x2 = 0.0475) of the same molecule?
Answer: 23.3 mPa·s

Question: What about the viscosity (323.15 K, x2 = 0.1177) of the same molecule?
Answer: 25.3 mPa·s

Question: What about the viscosity (323.15 K, x2 = 0.226) of the same molecule?
Answer: 28.6 mPa·s

Question: What about the viscosity (323.15 K, x2 = 0.3341) of the same molecule?
Answer: 31.9 mPa·s

Question: And the viscosity (323.15 K, x2 = 0.4479)?
Answer: 35.5 mPa·s

Question: And the viscosity (323.15 K, x2 = 0.558)?
Answer: 38.2 mPa·s

Question: What about the viscosity (323.15 K, x2 = 0.886) of the same molecule?
Answer: 38.3 mPa·s

Question: What about the viscosity (323.15 K, x2 = 0.9487) of the same molecule?
Answer: 36.8 mPa·s

Question: And the viscosity (333.15 K, x2 = 0.0475)?
Answer: 17.2 mPa·s

Question: And the viscosity (333.15 K, x2 = 0.226)?
Answer: 20.9 mPa·s

Question: And the viscosity (333.15 K, x2 = 0.4479)?
Answer: 25.5 mPa·s

Question: And the viscosity (333.15 K, x2 = 0.7776)?
Answer: 28.4 mPa·s

Question: And the viscosity (333.15 K, x2 = 0.886)?
Answer: 27.7 mPa·s

Question: What about the viscosity (333.15 K, x2 = 0.9487) of the same molecule?
Answer: 26.7 mPa·s

Question: What about the viscosity (343.15 K, x2 = 0.226) of the same molecule?
Answer: 15.6 mPa·s

Question: And the viscosity (343.15 K, x2 = 0.3341)?
Answer: 17.1 mPa·s

Question: And the viscosity (343.15 K, x2 = 0.4479)?
Answer: 18.9 mPa·s

Question: What about the viscosity (343.15 K, x2 = 0.558) of the same molecule?
Answer: 20.2 mPa·s

Question: What about the viscosity (343.15 K, x2 = 0.886) of the same molecule?
Answer: 20.6 mPa·s

Question: And the viscosity (353.15 K, x2 = 0.1177)?
Answer: 11 mPa·s

Question: What about the viscosity (353.15 K, x2 = 0.3341) of the same molecule?
Answer: 13.3 mPa·s

Question: What about the viscosity (353.15 K, x2 = 0.4479) of the same molecule?
Answer: 14.5 mPa·s

Question: And the viscosity (353.15 K, x2 = 0.558)?
Answer: 15.5 mPa·s

Question: What about the viscosity (353.15 K, x2 = 0.6663) of the same molecule?
Answer: 16.1 mPa·s

Question: And the viscosity (353.15 K, x2 = 0.886)?
Answer: 15.9 mPa·s

Question: What about the viscosity (353.15 K, x2 = 0.9487) of the same molecule?
Answer: 15.4 mPa·s

Question: Which viscosity (293.15 K, x2 = 0.0504) does the source give for CC[n+]1ccn(C)c1.O=S(=O)([O-])C(F)(F)C(F)F + CCCC[n+]1ccc(C)cc1.O=S(=O)([N-]S(=O)(=O)C(F)(F)F)C(F)(F)F here?
Answer: 115.9 mPa·s

Question: And the viscosity (293.15 K, x2 = 0.112)?
Answer: 113.9 mPa·s

Question: What about the viscosity (293.15 K, x2 = 0.5529) of the same molecule?
Answer: 95.1 mPa·s

Question: What about the viscosity (293.15 K, x2 = 0.6631) of the same molecule?
Answer: 89.1 mPa·s

Question: What about the viscosity (293.15 K, x2 = 0.8828) of the same molecule?
Answer: 78.9 mPa·s

Question: What about the viscosity (293.15 K, x2 = 0.9517) of the same molecule?
Answer: 75.3 mPa·s

Question: And the viscosity (303.15 K, x2 = 0.0504)?
Answer: 72 mPa·s

Question: What about the viscosity (303.15 K, x2 = 0.112) of the same molecule?
Answer: 70.8 mPa·s

Question: And the viscosity (303.15 K, x2 = 0.2211)?
Answer: 69.5 mPa·s

Question: What about the viscosity (303.15 K, x2 = 0.4432) of the same molecule?
Answer: 62.7 mPa·s

Question: What about the viscosity (303.15 K, x2 = 0.5529) of the same molecule?
Answer: 59.4 mPa·s

Question: What about the viscosity (303.15 K, x2 = 0.6631) of the same molecule?
Answer: 55.8 mPa·s

Question: What about the viscosity (303.15 K, x2 = 0.774) of the same molecule?
Answer: 52.9 mPa·s

Question: And the viscosity (303.15 K, x2 = 0.8828)?
Answer: 49.7 mPa·s

Question: And the viscosity (313.15 K, x2 = 0.2211)?
Answer: 45.7 mPa·s

Question: What about the viscosity (313.15 K, x2 = 0.3324) of the same molecule?
Answer: 43.8 mPa·s

Question: And the viscosity (313.15 K, x2 = 0.5529)?
Answer: 39.5 mPa·s

Question: What about the viscosity (313.15 K, x2 = 0.774) of the same molecule?
Answer: 35.4 mPa·s

Question: And the viscosity (313.15 K, x2 = 0.8828)?
Answer: 33.2 mPa·s

Question: And the viscosity (313.15 K, x2 = 0.9517)?
Answer: 31.7 mPa·s

Question: What about the viscosity (323.15 K, x2 = 0.0504) of the same molecule?
Answer: 33.3 mPa·s

Question: What about the viscosity (323.15 K, x2 = 0.112) of the same molecule?
Answer: 32.8 mPa·s

Question: And the viscosity (323.15 K, x2 = 0.2211)?
Answer: 31.7 mPa·s

Question: And the viscosity (323.15 K, x2 = 0.3324)?
Answer: 30.6 mPa·s

Question: And the viscosity (323.15 K, x2 = 0.5529)?
Answer: 27.6 mPa·s

Question: What about the viscosity (323.15 K, x2 = 0.6631) of the same molecule?
Answer: 26.5 mPa·s

Question: And the viscosity (323.15 K, x2 = 0.774)?
Answer: 25 mPa·s

Question: And the viscosity (323.15 K, x2 = 0.8828)?
Answer: 23.4 mPa·s

Question: And the viscosity (323.15 K, x2 = 0.9517)?
Answer: 22.4 mPa·s

Question: And the viscosity (333.15 K, x2 = 0.0504)?
Answer: 24.3 mPa·s

Question: And the viscosity (333.15 K, x2 = 0.112)?
Answer: 24 mPa·s

Question: And the viscosity (333.15 K, x2 = 0.2211)?
Answer: 23.2 mPa·s

Question: And the viscosity (333.15 K, x2 = 0.3324)?
Answer: 22.4 mPa·s

Question: And the viscosity (333.15 K, x2 = 0.774)?
Answer: 18.4 mPa·s

Question: And the viscosity (333.15 K, x2 = 0.8828)?
Answer: 17.3 mPa·s

Question: What about the viscosity (333.15 K, x2 = 0.9517) of the same molecule?
Answer: 16.6 mPa·s

Question: What about the viscosity (343.15 K, x2 = 0.112) of the same molecule?
Answer: 18 mPa·s

Question: What about the viscosity (343.15 K, x2 = 0.2211) of the same molecule?
Answer: 17.3 mPa·s

Question: What about the viscosity (343.15 K, x2 = 0.3324) of the same molecule?
Answer: 16.8 mPa·s

Question: What about the viscosity (343.15 K, x2 = 0.4432) of the same molecule?
Answer: 16.2 mPa·s

Question: What about the viscosity (343.15 K, x2 = 0.5529) of the same molecule?
Answer: 15.2 mPa·s

Question: What about the viscosity (343.15 K, x2 = 0.6631) of the same molecule?
Answer: 14.7 mPa·s

Question: What about the viscosity (343.15 K, x2 = 0.774) of the same molecule?
Answer: 13.9 mPa·s

Question: What about the viscosity (343.15 K, x2 = 0.8828) of the same molecule?
Answer: 13 mPa·s

Question: And the viscosity (343.15 K, x2 = 0.9517)?
Answer: 12.5 mPa·s

Question: And the viscosity (353.15 K, x2 = 0.0504)?
Answer: 14.2 mPa·s

Question: And the viscosity (353.15 K, x2 = 0.112)?
Answer: 14 mPa·s

Question: And the viscosity (353.15 K, x2 = 0.2211)?
Answer: 13.5 mPa·s

Question: What about the viscosity (353.15 K, x2 = 0.3324) of the same molecule?
Answer: 13.1 mPa·s

Question: And the viscosity (353.15 K, x2 = 0.4432)?
Answer: 12.6 mPa·s

Question: What about the viscosity (353.15 K, x2 = 0.5529) of the same molecule?
Answer: 11.9 mPa·s

Question: And the viscosity (353.15 K, x2 = 0.6631)?
Answer: 11.6 mPa·s

Question: And the viscosity (353.15 K, x2 = 0.9517)?
Answer: 9.9 mPa·s
